Data from patent US9518081B2, “Peptide libraries” (BICYCLE THERAPEUTICS LIMITED, priority 2009, dated 2016).
*1 amine or outer side, *2 acyl side, *3 side chain or, on linkers, in order; H or OH if unused. Where a SMILES comes first, the peptide text is derived from it. Bridges are numbered along the chain shown (N, C = ends). TBMB = c1c(C[*:1])cc(C[*:3])cc1C[*:2]

System: chymotrypsin
Assay: Phage ELISA after DTT reduction and chymotrypsin treatment (resistance to proteolysis)
Type: in vitro ADME
Details: 5 mM DTT 20 min, chymotrypsin 50 ug/ml 2 min
Method: 0.6 μg/mL of biotinylated MDM2 peptide (res 2-125) was immobilized on a streptavidin-coated plate (Roche). Plate was blocked with PBSM (but 4% in milk powder) and linear or TBMB-conjugated phage (10^7 TU/well in PBSM in the presence or absence of 5 mM DTT) was incubated on the plate for 50 min at room temperature. Similarly, phage was first reduced in 5 mM DTT for 20 min, treated with chymotrypsin (50 ug/ml in PBS) for 2 min, mixed with PBSM (final concentration) and incubated on the plate for 50 min at room temperature. Phage was detected using an anti-M13-HRP monoclonal antibody (1:5000, Amersham).
Note that 5 mM DTT can reduce the disulphide bonds of chymotrypsin leading to its inactivation as a protease. […] In other experiments we have used up to 0.2 mM-5 mM TCEP in the presence of chymotrypsin (0.1 mg/ml-1 mg/ml) for 2 minutes at room temperature in PBS. These conditions also allowed us to distinguish between the linear and cyclic peptides on phage.

Structure (SMILES) | resistance of MDM2 binding to proteolysis
CC(C)[C@@H]1NC(=O)[C@@H](NC(=O)[C@@H](N)CO)CSCc2cc3cc(c2)CSC[C@H](NC(=O)[C@H]([C@@H](C)O)NC(=O)[C@H](Cc2c[nH]c4ccccc24)NC(=O)CNC(=O)[C@H](Cc2ccccc2)NC(=O)[C@H](CCCNC(=N)N)NC1=O)C(=O)N[C@@H](CC(=O)O)C(=O)N[C@@H](CC(N)=O)C(=O)N[C@@H](CO)C(=O)N[C@@H](Cc1c[nH]c2ccccc12)C(=O)N[C@@H](Cc1c[nH]cn1)C(=O)NCC(=O)N[C@H](C(=O)N[C@@H](CCCCN)C(=O)NCC(=O)O)CSC3 [PEP48] (H-SCVRFGWTCDNSWHGCKG-OH; linker 2-9-16 via TBMB (inferred)) | resistant to proteolysis
CC(C)C[C@@H]1NC(=O)[C@H](CCC(=O)O)NC(=O)[C@@H](NC(=O)[C@@H](N)CO)CSCc2cc3cc(c2)CSC[C@H](NC(=O)[C@H](CCCCN)NC(=O)[C@@H]2CCCN2C(=O)[C@H](CC(N)=O)NC(=O)[C@H](Cc2c[nH]c4ccccc24)NC1=O)C(=O)N[C@@H](CCCNC(=N)N)C(=O)N[C@@H](CC(C)C)C(=O)N[C@@H](CO)C(=O)N1CCC[C@H]1C(=O)N[C@@H](Cc1ccccc1)C(=O)N[C@@H](CCC(=O)O)C(=O)N[C@H](C(=O)N[C@@H](CCCCN)C(=O)NCC(=O)O)CSC3 [PEP10] (H-SCELWNPKCRLSPFECKG-OH; linker 2-9-16 via TBMB (inferred)) | resistant to proteolysis
